What follows are compounds tested against BTK (Homo sapiens, UniProt Q06187) (assay: biochemical). Details: read-out: BTK inhibition (%), 0.75 uM BTK, […] probe 3l, 15 min preincubation.
Sequence of BTK (Q06187 402-655 limits assumed): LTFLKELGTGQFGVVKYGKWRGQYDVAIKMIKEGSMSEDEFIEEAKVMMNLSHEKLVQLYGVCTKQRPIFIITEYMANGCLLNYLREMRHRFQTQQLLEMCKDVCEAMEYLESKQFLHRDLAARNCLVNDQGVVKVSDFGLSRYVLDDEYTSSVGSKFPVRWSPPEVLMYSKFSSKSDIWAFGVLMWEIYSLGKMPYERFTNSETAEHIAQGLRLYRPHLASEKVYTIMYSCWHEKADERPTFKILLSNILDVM
In the case of `CC1=C(/C=C/C(C)=C/C=C/C(C)=C/C=C/C=C(C)/C=C/C=C(C)/C=C/C2=C(C)CCCC2(C)C)C(C)(C)CCC1` [PCM-0090171], the inhibition at 10 µM is reported as 24.7%. `CCCCCCCCOC(=O)c1cc(O)c(O)c(O)c1` [PCM-0216629] was tested, and the inhibition at 10 µM was 3.9%. Compound `CCN(C(=O)c1c(O)c2c(Cl)cccc2n(C)c1=O)c1ccccc1` [PCM-0095368] has an inhibition at 10 µM of 11%. Work on `CN1CCN(C(=O)c2cc3cc(Cl)ccc3[nH]2)CC1` [PCM-0095374] yielded an inhibition at 10 µM of -2.1%. For `C=C(C(=O)O)[C@@H]1CC[C@@H](C)[C@@H]2CCC(C)=C[C@@H]21` [PCM-0216417], the inhibition at 10 µM was 0%. In the case of `COc1ccc([C@@H]2CC(=O)c3c(O)cc(O[C@@H]4O[C@H](CO[C@@H]5O[C@@H](C)[C@H](O)[C@@H](O)[C@H]5O)[C@@H](O)[C@H](O)[C@H]4O)cc3O2)cc1O` [PCM-0214677], the inhibition at 10 µM is reported as -7%. For `O=C1CCN(c2ccccc2)N1` [PCM-0216111], the inhibition at 10 µM was -12.4%. For `Cc1cc(C)cc(C(=O)NOCCCCCC(=O)NO)c1` [PCM-0215409], the inhibition at 10 µM was 9.3%. For `CC(=O)OCC(=O)[C@@]1(O)CC[C@H]2[C@@H]3CCC4=CC(=O)C=C[C@]4(C)[C@H]3[C@@H](O)C[C@@]21C` [PCM-0214701], the inhibition at 10 µM was 2.1%. Work on `OC1OC[C@@H](O)[C@@H](O)[C@H]1O` (stereo partly drawn) [PCM-0216193] yielded an inhibition at 10 µM of 4.6%. Work on `CN(CC(=O)N(Cc1ccc(C2CCCCC2)cc1)c1ccc(C(=O)O)c(O)c1)S(=O)(=O)c1c(F)c(F)c(F)c(F)c1F` [PCM-0215770] yielded an inhibition at 10 µM of 82.6%. `COC(=O)[C@H](CCSC)NC(=O)c1ccc(NC[C@@H](N)CS)cc1-c1ccccc1` [PCM-0215424] was tested, and the inhibition at 10 µM was -57.9%. For `COc1cccc(Nc2c(C(N)=O)cnc3c(C)cc(S(=O)(=O)c4cccc(C(=O)N(C)C)c4)cc23)c1` [PCM-0095466], the inhibition at 10 µM was 0%. `COc1cc(-c2cn(C)c(=O)c3cnccc23)cc(OC)c1CN(C)C` [PCM-0215650] was tested, and the inhibition at 10 µM was -3.1%. For `Cc1cccc(C#Cc2ccccc2)n1` [PCM-0065388], the inhibition at 10 µM was -10.9%. `CC1(C)CCC[C@]2(C)[C@H]3CC(=O)O[C@]3(C)CC[C@@H]12` [PCM-0090818] showed an inhibition at 10 µM of -18.7%. For `C#Cc1cccc(Nc2ncnc3cc(OCCOC)c(OCCOC)cc23)c1` [PCM-0085975], the inhibition at 10 µM was 1.7%. Compound `CCC(C)CC(C)CCCCCCCCC(=O)N[C@H]1C[C@@H](O)[C@@H](NCCN)NC(=O)[C@@H]2[C@@H](O)CCN2C(=O)[C@H]([C@H](O)CCN)NC(=O)[C@H]([C@H](O)[C@@H](O)c2ccc(O)cc2)NC(=O)[C@@H]2C[C@@H](O)CN2C(=O)[C@H]([C@@H](C)O)NC1=O` (stereo partly drawn) [PCM-0215354] has an inhibition at 10 µM of 11.1%. `COc1cc(C2Oc3cc(C4Oc5cc(O)cc(O)c5C(=O)C4O)ccc3OC2CO)ccc1O` (stereo not drawn) [PCM-0094811] gave an inhibition at 10 µM of 66.1%. With `O=C(c1ccc(Cl)cc1Cl)n1nnc2ccccc21` [PCM-0215673] the inhibition at 10 µM was 17%. `Cc1[nH]c(=O)c(C#N)cc1-c1ccncc1` [PCM-0065386] showed an inhibition at 10 µM of -9.3%. `CCO[C@H]1O[C@@H]2O[C@@]3(C)CC[C@H]4[C@H](C)CC[C@@H]([C@H]1C)[C@@]24OO3` [PCM-0214993] gave an inhibition at 10 µM of -16.3%. `CC(C)(C)C(O)/C(=C\c1ccc(Cl)cc1)n1cncn1` (stereo not drawn) [PCM-0214890] was tested, and the inhibition at 10 µM was -16.3%. For `O=C(O)CNC(=O)c1ccccc1` [PCM-0216220], the inhibition at 10 µM was 20.8%. For `O=C(/C=C/c1ccccc1)NC(NC(=S)Nc1ccc(Cl)cc1)C(Cl)(Cl)Cl` (stereo not drawn) [PCM-0095765], the inhibition at 10 µM was 34%. Work on `CN(CC(=O)O)C(N)=NP(=O)(O)O` [PCM-0215959] yielded an inhibition at 10 µM of -5.1%. `Cc1cc(Nc2cc(Cl)nc(Oc3ccc([N+](=O)[O-])cc3)n2)n[nH]1` [PCM-0215861] gave an inhibition at 10 µM of 12.4%. With `NC(=O)Nc1cc(-c2cccc(F)c2)sc1C(=O)N[C@H]1CCCNC1` [PCM-0095092] the inhibition at 10 µM was 86.9%. For `O=C(C1CCCCC1)N1CC(=O)N2CCc3ccccc3C2C1` (stereo not drawn) [PCM-0064807], the inhibition at 10 µM was -5.4%. `Cc1nn(C)c2nc(NNC(=O)Nc3cc(Cl)nc(Cl)c3)cc(C(C)C)c12` [PCM-0215784] showed an inhibition at 10 µM of 54.8%. With `Cc1nc2cc(F)c(F)cc2n1-c1cncc(Nc2ccc(C(F)(F)F)cc2)n1` [PCM-0215953] the inhibition at 10 µM was -6.2%. In the case of `Cn1cc(C2=C(c3ccc(Cl)cc3Cl)C(=O)NC2=O)c2ccccc21` [PCM-0064915], the inhibition at 10 µM is reported as 3.4%. Compound `O=C1Nc2ccccc2C1=O` [PCM-0214846] has an inhibition at 10 µM of 11.7%. With `O=C(O)Cc1cccc(OCCCN(Cc2cccc(C(F)(F)F)c2Cl)CC(c2ccccc2)c2ccccc2)c1` [PCM-0095493] the inhibition at 10 µM was 23.4%. `COc1ccc(S(=O)(=O)N(CCO)c2ccccc2CN(C)C/C=C/c2ccc(Cl)cc2)cc1` [PCM-0215495] gave an inhibition at 10 µM of 70.3%. `COc1ccccc1S(=O)(=O)Nc1ccc2c(c1)CN(C)C(=O)N2` [PCM-0094933] was tested, and the inhibition at 10 µM was 6.2%. For `O=c1cc(N2CCOCC2)oc2c1ccc1ccccc12` [PCM-0215173], the inhibition at 10 µM was -17.9%. Work on `CN(C)c1ccc2nc3ccc(=[N+](C)C)cc-3sc2c1` [PCM-0090465] yielded an inhibition at 10 µM of 42.8%. With `COc1cc2ncnc(Oc3cccc(NC(=O)Nc4cc(C(C)(C)C(F)(F)F)on4)c3)c2cc1OC` [PCM-0095605] the inhibition at 10 µM was 4.1%. With `COc1cc(C)c2c(=O)c(-c3ccccc3)coc2c1` [PCM-0216420] the inhibition at 10 µM was 32.4%. Compound `Cc1cccc(-c2[nH]c(C(C)(C)C)nc2-c2ccc3nccnc3c2)n1` [PCM-0065614] has an inhibition at 10 µM of 25.5%. Compound `O=S(=O)(O)c1ccc2cc(N=Nc3cc(S(=O)(=O)O)c4cccnc4c3O)ccc2c1` [PCM-0215685] has an inhibition at 10 µM of 54.1%. `CCCCC[C@](C)(O)/C=C/[C@@H]1[C@@H](C/C=C\CCCC(=O)O)[C@@H](O)C[C@H]1O` [PCM-0216577] gave an inhibition at 10 µM of -3.9%. `CCOc1cc2ncc(C#N)c(Nc3ccc(OCc4ccccn4)c(Cl)c3)c2cc1NC(=O)/C=C/CN(C)C` [PCM-0095315] showed an inhibition at 10 µM of 80%. `C/C=C1\[C@H]2C=C(C)C[C@]1(N)c1ccc(=O)[nH]c1C2` [PCM-0091027] gave an inhibition at 10 µM of -24.7%. Compound `C=C(C)[C@@H]1CC[C@]2(C(=O)O)CC[C@]3(C)[C@H](CC[C@@H]4[C@@]5(C)CC[C@H](OC(=O)CC(C)(C)C(=O)O)C(C)(C)[C@@H]5CC[C@]43C)[C@@H]12` [PCM-0216605] has an inhibition at 10 µM of 17.8%. `C[C@H](NC(=O)CCC(F)(F)F)C(=O)N[C@@H]1C(=O)N(CCO)c2ncccc2-c2ccccc21` [PCM-0215760] was tested, and the inhibition at 10 µM was 15.4%. Compound `COc1cc2ncnc(Nc3ccc(F)c(Cl)c3)c2cc1OCCCN1CCOCC1` [PCM-0086349] has an inhibition at 10 µM of 2.1%. Work on `C[C@H]1CNCCCN1S(=O)(=O)c1cccc2cncc(F)c12` [PCM-0215585] yielded an inhibition at 10 µM of -14.5%. `O=S(=O)(NCCSSCCNS(=O)(=O)c1cc(Cl)ccc1Cl)c1cc(Cl)ccc1Cl` [PCM-0215542] was tested, and the inhibition at 10 µM was 5.4%. `CC(C)C[C@H](NC(=O)[C@@H](NC(=O)c1cccc(-c2ccccc2)n1)[C@@H](C)O)B(O)O` [PCM-0214714] showed an inhibition at 10 µM of 6.2%. In the case of `COc1ccc(S(=O)(=O)N(C(C)=O)c2ccccc2/C=C/c2cc[n+]([O-])cc2)cc1` [PCM-0095165], the inhibition at 10 µM is reported as -18.6%. Work on `COc1cc2c(cc1Cc1cccc(Cl)c1F)c(=O)c(C(=O)O)cn2[C@H](CO)C(C)C` [PCM-0095274] yielded an inhibition at 10 µM of 31.9%. Compound `CCN(CC)Cc1cc(Nc2ccnc3cc(Cl)ccc23)ccc1O` [PCM-0085909] has an inhibition at 10 µM of 8.3%. In the case of `COc1cc2nc(N3CCCN(C)CC3)nc(NC3CCN(Cc4ccccc4)CC3)c2cc1OC` [PCM-0064746], the inhibition at 10 µM is reported as -0.7%. Compound `Clc1ccc(C(Cn2ccnc2)OCc2c(Cl)cccc2Cl)c(Cl)c1` (stereo not drawn) [PCM-0085849] has an inhibition at 10 µM of 38.9%. `C=C[C@H]1CN2CC[C@H]1C[C@H]2[C@H](O)c1ccnc2ccccc12` [PCM-0094829] gave an inhibition at 10 µM of -10.9%. With `Cc1nc2ccc(CN(C)c3ccc(C(=O)N[C@@H](CCC(=O)O)C(=O)O)s3)cc2c(=O)[nH]1` [PCM-0095076] the inhibition at 10 µM was 1.6%. With `C[C@@H]1O[C@@H](O[C@H]2[C@H](O[C@H]3CC[C@@]4(C)[C@@H](CC[C@]5(C)[C@@H]4CC=C4[C@@H]6CC(C)(C)CC[C@]6(C(=O)O[C@@H]6O[C@H](CO[C@@H]7O[C@H](CO)[C@@H](O)[C@H](O)[C@H]7O)[C@@H](O)[C@H](O)[C@H]6O)CC[C@]45C)[C@]3(C)CO)OC[C@H](O)[C@@H]2O)[C@H](O)[C@H](O[C@@H]2O[C@H](CO)[C@@H](O)[C@H](O)[C@H]2O)[C@H]1O` [PCM-0216447] the inhibition at 10 µM was -21.6%. With `Cc1cccc(CC(=O)N2CCc3c2ccc(-c2cn(C)c4ncnc(N)c24)c3F)n1` [PCM-0095729] the inhibition at 10 µM was -9%. In the case of `NC(=O)c1ccc(-c2nc(-c3ccc4c(c3)OCO4)c(-c3ccccn3)[nH]2)cc1` [PCM-0095013], the inhibition at 10 µM is reported as 12.4%. With `COc1ccc(-c2oc3cc(O)cc(O)c3c(=O)c2O)cc1` [PCM-0215098] the inhibition at 10 µM was 5.5%. Compound `CCCC(=O)O[C@]1(C(=O)COC(C)=O)CC[C@H]2[C@@H]3C[C@H](F)C4=CC(=O)C=C[C@]4(C)[C@@]3(F)[C@@H](O)C[C@@]21C` [PCM-0214767] has an inhibition at 10 µM of -3.4%. Compound `CN=C(NC#N)NCCSCc1nc[nH]c1C` [PCM-0214655] has an inhibition at 10 µM of -12.4%. Work on `CC(C)C(=O)OCC(=O)[C@@]12O[C@H](C3CCCCC3)O[C@@H]1C[C@H]1[C@@H]3CCC4=CC(=O)C=C[C@]4(C)[C@H]3[C@@H](O)C[C@@]12C` [PCM-0214834] yielded an inhibition at 10 µM of -6.9%. Work on `COc1c(O)c(C)cc2c1C(=O)c1c(O)cccc1C2=O` [PCM-0216457] yielded an inhibition at 10 µM of 64.1%. In the case of `CC12CCC(C1)C(C)(C)C2O` (stereo not drawn) [PCM-0216150], the inhibition at 10 µM is reported as -13.9%. For `N#CC1(c2ccc(NC(=O)c3cccnc3NCc3ccncc3)cc2)CCCC1` [PCM-0095263], the inhibition at 10 µM was 2.8%. `C[C@@H](NCCCc1cccc(C(F)(F)F)c1)c1cccc2ccccc12` [PCM-0095032] gave an inhibition at 10 µM of 24.1%. In the case of `Cn1nnc(-c2ccc(-c3ccc(N4C[C@H](COP(=O)(O)O)OC4=O)cc3F)cn2)n1` [PCM-0214830], the inhibition at 10 µM is reported as 13.2%. Work on `COC(=O)C1=C(C)NC(C)=C(C(=O)O[C@@H]2CCCN(Cc3ccccc3)C2)[C@@H]1c1cccc([N+](=O)[O-])c1` [PCM-0214706] yielded an inhibition at 10 µM of 80.9%. `Cc1ccc2c(=O)c3cccc(CC(=O)O)c3oc2c1C` [PCM-0095095] gave an inhibition at 10 µM of -7.8%. In the case of `Oc1ccc2c(c1)OC[C@@H]1c3cc4c(cc3O[C@H]21)OCO4` [PCM-0216297], the inhibition at 10 µM is reported as -20.1%. In the case of `Cc1ccc(C=NNC(=O)c2ccccc2Oc2ccccc2)o1` [PCM-0215777], the inhibition at 10 µM is reported as -16.2%. For `CC1(C)[C@@H]2CC[C@@]1(C)C(=O)C2` [PCM-0214819], the inhibition at 10 µM was 1.6%.
